Assay: Solid state sunlight exposure of Compound A powder, reverse phase HPLC
Format: physicochemical
Details: for purity value as measured by reverse phase HPLC: Compound A dry powder
Procedure: Approximately 500 mg of Compound A dry powder was placed in a 1-gallon polyethylene bag and exposed to sunlight for two months consecutively during daylight hours. The powder was in a very thin layer and the bag was shaken often to ensure that all the powder and not just the top layer was exposed to sunlight. A control sample of Compound A powder was stored in an amber vial in the dark for the same amount of time for comparison purposes. […] The light-exposed sample and the control sample were analyzed by HPLC to evaluate differences in their composition. The HPLC method used a reverse phase Zorbax Eclipse XDB-C8, 3.5 μm, 4.6×150 mm column. The mobile phase was comprised of water and acetonitrile mixtures acidified with trifluoroacetic acid. Gradient elution with increasing acetonitrile provided chromatograms of the control sample of Compound A (FIG. 1, before light exposure) and the light-exposed sample of Compound A (FIG. 1, after light exposure) with UV detection at 230 nm.
After exposure to sunlight, a new peak appeared in the chromatogram evidencing a new molecule.

## Cc1nc(C(=O)NCC(=O)O)c(O)c2ccc(Oc3ccccc3)cc12 [Compound A, [(4-hydroxy-1-methyl-7-phenoxy-isoquinoline-3-carbonyl)-amino]-acetic acid]
After exposure to sunlight for two months
  purity value as measured by reverse phase HPLC: 98.4%
Before exposure to sunlight
  purity value as measured by reverse phase HPLC: 99.1%
Control sample stored in amber vial in the dark, two months
  visual inspection (colour): yellow
light-exposed sample, two months sunlight
  visual inspection (colour): off-white

Reference: patent US10765672B2, “Pharmaceutical formulations of a HIF hydroxylase inhibitor” (FibroGen, Inc., priority 2013, dated 2020)
